The source of these data is patent US10906905B2, “Five-membered heteroaryl ring bridged ring derivative, preparation method therefor and medical use thereof” (Jiangsu Hengrui Medicine Co., Ltd., priority 2016, dated 2021).

The target of one data set is TGFβRI kinase ALK5 (Homo sapiens (Human), UniProt P36897). Kind of data set: Inhibition of TGFβRI kinase ALK5 activity (TGFβRI kinase assay kit, ADP-Glo). Format: biochemical. The note with it: ATP 50 μM; read-out: IC50 of inhibition effect on TGFβRI kinase ALK5 activity. How it is done: The inhibition effect of TGFβRI kinase activity in vitro was determined by the following method.
Chain of TGFβRI kinase ALK5 (P36897 34-503): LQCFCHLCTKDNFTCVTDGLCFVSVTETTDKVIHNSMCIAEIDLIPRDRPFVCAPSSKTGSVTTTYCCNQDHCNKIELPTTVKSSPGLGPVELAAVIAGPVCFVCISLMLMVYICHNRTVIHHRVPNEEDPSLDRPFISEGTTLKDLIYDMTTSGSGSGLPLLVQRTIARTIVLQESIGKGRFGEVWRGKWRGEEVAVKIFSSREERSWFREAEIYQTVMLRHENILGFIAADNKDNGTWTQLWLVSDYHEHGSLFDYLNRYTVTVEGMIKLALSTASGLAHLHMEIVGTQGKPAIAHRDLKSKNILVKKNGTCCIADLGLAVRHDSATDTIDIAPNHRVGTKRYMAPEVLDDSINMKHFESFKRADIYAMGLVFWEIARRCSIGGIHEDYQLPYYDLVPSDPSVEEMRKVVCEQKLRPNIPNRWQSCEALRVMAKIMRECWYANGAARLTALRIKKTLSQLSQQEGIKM
The inhibition effect of the compounds of the present invention on TGFβRI kinase ALK5 activity was determined by the following experimental method:
(§1) TGFβRI kinase assay kit (V4093, Promega) was used to assay enzyme activity. 2 μl of enzyme solution (the final concentration of enzyme in the reaction system was 2 ng/μL) formulated with reaction buffer (40 mM Tris pH 7.5, 20 mM MgCl2, 0.1 mg/ml BSA), 1 μl of a 3-fold gradient dilution of the compounds dissolved in 5% DMSO, and 2 μl of a mixed solution of ATP and TGFβRI substrate peptide (the final concentration of ATP was 50 μM, and the final concentration of substrate was 0.2 μg/μL) were added successively to a 384-well plate (4514, Corning). After reaction at 27° C. for 2.5 hours, 5 μl of ADP-Glo solution in the kit was added to each well, then the plate was placed at 27° C. for 40 minutes. 10 μl of kinase assay reagent was then added to each well, then the plate was placed at 27° C. for 30 minutes. The chemiluminescence signal values were measured with a Victor 3 (PerkinElmer) multi-function microplate reader. The IC50 values of the compounds for enzyme inhibition were calculated using Graphpad prism software based on each concentration of the compound and the corresponding signal value thereof.

In data set [1] the target is recombinant human VEGFR2 enzyme (Homo sapiens (Human), UniProt P35968). Description: Inhibition of VEGFR2 kinase activity (Z'-LYTE Kinase Assay Kit). Format: biochemical. The note with it: ATP 50 μM; read-out: IC50 of inhibition effect on VEGFR2 kinase activity. As to the method:
The inhibition effect of VEGFR2 kinase activity in vitro was determined by the following method.
The inhibition effect of the compounds of the present invention on VEGFR2 kinase activity was determined by the following experimental method:
After reaction at 25° C. for 2 hours, 5 μL of detection reagent was added to each well. […] The IC50 values of the compounds for enzyme inhibition were calculated using Graphpad prism software based on each concentration of the compound and the corresponding signal value thereof.

The target in the next data set is p38α kinase (Homo sapiens (Human), UniProt Q16539). Description: Inhibition of p38α kinase activity (p38α kinase assay kit, ADP-Glo). Format: biochemical. The note with it: ATP 50 μM; read-out: IC50 of inhibition effect on p38α kinase activity. As to the method:
The inhibition of p38α kinase activity in vitro was determined by the following method.
The inhibition effect of the compounds of the present invention on p38a kinase activity was determined by the following experimental method:
as §1, with “p38α kinase” for “TGFβRI kinase”, “kit (V9591,” for “kit (V4093,”, “was 0.5” for “was 2”, “and p38” for “and TGFβRI”, “compounds on” for “compounds for”

Data set [2] concerns Smad signaling pathway of TGFβRI. Kind of data set: Inhibition of Smad signaling pathway of TGFβRI (3TP-lux luciferase reporter in HepG2 cell). Type of data set: cell-based. The note with it: Homo sapiens; HepG2 cell, 3TP-lux plasmid, 18 hours; read-out: IC50 on the inhibition of Smad signaling pathway of TGFβRI. As to the method: The inhibition effect of the compounds of the present invention on Smad signaling pathway of TGFβRI was determined by the following in vitro test.
The inhibition effect of the compounds of the present invention on Smad signaling pathway of TGFβRI was determined by the following experimental method:
The seeding density is 2.5×10^4 cells/well. The cells were incubated overnight at 37° C., 5% CO2. Each well was replaced with fresh EMEM medium containing 10% FBS. […] The cells were further incubated for 24 hours at 37° C., 5% CO2. Each well was replaced with 90 μL of EMEM medium containing 0.5% FBS, then the cells were starved for 6 hours. The compounds were formulated as a 20 mM stock solution, which was diluted in gradient to a 400× concentration with 100% DMSO, and further 40-fold diluted with EMEM containing 0.5% FBS. The cell culture plate was taken out, then 10 μl of diluted compound or control (0.25% DMSO) was added to each well respectively. The plate was shaken gently, then incubated for 18 hours in an incubator at 37° C., 5% CO2. Finally, 100 μl of detection reagent ONE-Glo™ Luciferase Assay (E6110, Promega) was added to each well, and the plate was placed in dark at room temperature for 10 minutes. The chemiluminescence signal values were measured with a Victor 3.0 (PerkinElmer). The IC50 values of the compounds were calculated using Graphpad Prism software based on each concentration of the compound and the corresponding signal value thereof.
(In general: Reporter assays use an easily measured gene product as a stand-in for the process of interest.)

The next data set relates to NIH3T3 cell. Kind of data set: Inhibition of NIH3T3 cell proliferation (CellTiter-Glo). Type of data set: cell-based. The note with it: Mus musculus, 72 hours, 0.5% FBS. How it is done:
The inhibition effect of the compounds of the present invention on NIH3T3 cell proliferation was determined by the following in vitro test.
The inhibition effect of the compounds of the present invention on NIH3T3 cell proliferation was determined by the following experimental method:
On a 96-well white plate with transparent bottom (3903, Corning), 100 μL of NIH3T3 cell (GNM6, Cell Bank of Typical Culture Collection Committee of Chinese Academy of Sciences) was seeded in a DMEM medium containing 10% FBS in each well. The seeding density is 2000 cells/well. The cells were incubated overnight at 37° C., 5% CO2. After overnight incubation, each well was replaced with 90 μL of DMEM medium containing 0.5% FBS. 10 μl of a 3-fold gradient dilution of the compounds with DMEM medium containing 0.5% FBS was then added, and the plate was incubated for 72 hours in a cell incubator at 37° C., 5% CO2. Finally, 50 μL of CellTiter-Glo (G7573, Promega) was added to each well. After incubation for 10 minutes at room temperature, the chemiluminescence signal values were measured with a Victor 3 microplate reader (PerkinElmer). The IC50 values of the compounds were calculated using Graphpad Prism software based on each concentration of the compound and the corresponding signal value thereof.
A general note: ATP-based viability assays read luminescence as a measure of living cells.

The nature of data set [3]: Pharmacokinetics assay in rats after intragastrical administration. The note with it: both sexes, Sprague-Dawley, rat, plasma, po, SD rats, 2 mg/kg. Type of data set: in vivo. How it is done: Rats were used as test animals. The drug concentration in plasma at different time points was determined by LC/MS/MS method after intragastrical administration of the compounds of Examples 1-1, 1-2, 2-1, 3-1, the compound with retention time of 6.631 minutes among Examples 9-1 and 9-2, and the compounds of Examples 33 and 39-1 to rats. The pharmacokinetic behavior of the compounds of the present invention was studied and evaluated in rats.
Compounds of Examples 1-1, 1-2, 2-1, 3-1, compound with retention time of 6.631 minutes among Examples 9-1 and 9-2, and compounds of Examples 33 and 39-1.
Twenty-eight healthy adult Sprague-Dawley (SD) rats (half male and half female) were purchased from SINO-BRITISH SIPPR/BK LAB. ANIMAL LTD., CO, with Certificate No.: SCXK (Shanghai) 2008-0016, and equally divided into 7 groups (4 rats per group).
A certain amount of the test compound was weighed, and added with 5% by volume of DMSO, 5% by volume of Tween 80, and 90% by volume of physiological saline were added to prepare a 0.2 mg/mL colorless, clear and transparent solution.
After an overnight fast, SD rats were administered intragastrically the test compounds at an administration dosage of 2.0 mg/kg and an administration volume of 10.0 mL/kg.
The rats were intragastrically administered the compounds of Examples 1-1, 1-2, 2-1, 3-1, the compound with retention time of 6.631 minutes among Examples 9-1 and 9-2, and the compounds of Examples 33 and 39-1.0.2 mL of blood was taken from the orbital sinus before administration and at 0.5, 1.0, 2.0, 4.0, 6.0, 8.0, 11.0 and 24.0 hours after administration. The samples were stored in heparinized tubes, and centrifuged for 10 minutes at 4° C. at 3,500 rpm to separate the blood plasma. The plasma samples were stored at −20° C. The rats were fed 2 hours after administration.
The content of the test compounds in the plasma of rats after intragastrical administration of the test compounds at different concentrations was determined: 25 μL of rat plasma at each time after administration was taken, added with 50 μL (100 ng/mL) of the internal standard solution of camptothecin and 175 μL of acetonitrile, shaken vertically for 5 minutes, and centrifuged for 10 minutes (4000 rpm). 3.0 μL of the supernatant was taken from the plasma samples for LC/MS/MS analysis.

Chain of recombinant human VEGFR2 enzyme (P35968 20-1356): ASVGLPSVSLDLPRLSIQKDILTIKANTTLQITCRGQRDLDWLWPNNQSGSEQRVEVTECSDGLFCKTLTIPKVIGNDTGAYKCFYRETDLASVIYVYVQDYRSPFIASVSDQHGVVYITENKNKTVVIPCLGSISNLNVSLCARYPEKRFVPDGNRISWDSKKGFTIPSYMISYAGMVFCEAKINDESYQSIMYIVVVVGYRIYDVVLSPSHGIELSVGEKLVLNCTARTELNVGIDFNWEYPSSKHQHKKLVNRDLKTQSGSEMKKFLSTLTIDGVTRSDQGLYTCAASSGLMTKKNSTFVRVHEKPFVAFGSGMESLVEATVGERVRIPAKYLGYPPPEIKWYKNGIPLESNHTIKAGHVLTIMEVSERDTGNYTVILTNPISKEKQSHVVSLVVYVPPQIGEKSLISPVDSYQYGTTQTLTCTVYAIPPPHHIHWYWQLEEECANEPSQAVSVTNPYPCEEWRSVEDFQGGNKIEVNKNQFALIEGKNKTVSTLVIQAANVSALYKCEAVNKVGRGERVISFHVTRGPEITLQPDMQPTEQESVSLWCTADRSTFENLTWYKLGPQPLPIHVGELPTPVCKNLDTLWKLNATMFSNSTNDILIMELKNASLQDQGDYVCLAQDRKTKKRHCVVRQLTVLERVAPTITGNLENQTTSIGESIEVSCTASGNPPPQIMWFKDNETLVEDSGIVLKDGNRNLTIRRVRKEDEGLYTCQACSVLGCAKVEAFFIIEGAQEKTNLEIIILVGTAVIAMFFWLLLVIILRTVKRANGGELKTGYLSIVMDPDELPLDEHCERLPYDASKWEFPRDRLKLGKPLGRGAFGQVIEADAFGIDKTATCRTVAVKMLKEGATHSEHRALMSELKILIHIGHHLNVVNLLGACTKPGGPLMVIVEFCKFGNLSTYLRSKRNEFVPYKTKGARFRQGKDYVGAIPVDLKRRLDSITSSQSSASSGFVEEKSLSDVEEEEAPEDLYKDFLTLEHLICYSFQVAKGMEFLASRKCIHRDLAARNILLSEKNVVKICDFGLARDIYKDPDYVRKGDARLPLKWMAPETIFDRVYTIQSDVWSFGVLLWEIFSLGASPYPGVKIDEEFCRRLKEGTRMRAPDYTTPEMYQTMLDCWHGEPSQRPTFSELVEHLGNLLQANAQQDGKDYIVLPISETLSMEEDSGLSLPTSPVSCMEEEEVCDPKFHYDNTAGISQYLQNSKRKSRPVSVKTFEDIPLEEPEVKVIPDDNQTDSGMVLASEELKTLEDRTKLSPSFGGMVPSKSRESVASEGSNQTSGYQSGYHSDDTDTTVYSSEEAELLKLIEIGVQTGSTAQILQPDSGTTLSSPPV
Chain of p38α kinase (Q16539 whole entry): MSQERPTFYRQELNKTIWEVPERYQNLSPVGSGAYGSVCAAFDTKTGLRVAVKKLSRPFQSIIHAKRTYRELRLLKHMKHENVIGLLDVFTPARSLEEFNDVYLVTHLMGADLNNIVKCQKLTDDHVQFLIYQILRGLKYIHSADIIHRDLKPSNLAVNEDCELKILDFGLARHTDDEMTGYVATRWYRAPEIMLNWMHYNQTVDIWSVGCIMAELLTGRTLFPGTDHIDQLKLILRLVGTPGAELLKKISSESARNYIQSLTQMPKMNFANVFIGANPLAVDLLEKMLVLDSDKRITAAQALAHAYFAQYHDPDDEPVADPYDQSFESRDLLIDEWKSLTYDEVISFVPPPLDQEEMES

The term IC50 denotes the concentration that inhibits the measured activity by half. On to `Cc1cccc(-c2nc3n(c2-c2ccnc(-c4ccc(S(C)(=O)=O)cc4)c2)[C@@H]2CC[C@H]3C2)n1` [Example 3-2, (5R,8S)-2-(6-Methylpyridin-2-yl)-3-(2-(4-(methylsulfonyl)phenyl)pyridin-4-yl)-5,6,7,8-tetrahydro-5,8-methanoimidazo[1,2-a]pyridine], for which the half-inhibitory concentration (IC50) at TGFβRI kinase ALK5 worked out at 23 nM; in data set [1] it was 928 nM; on p38α kinase, 654 nM; in data set [2], 31 nM.
For `Cc1cccc(-c2nc3n(c2-c2ccnc(-c4ccc(C(N)=O)cc4)c2)C2CCC3C2)n1` (stereo not drawn) [Example 4, 4-(4-(2-(6-Methylpyridin-2-yl)-5,6,7,8-tetrahydro-5,8-methanoimidazo[1,2-a]pyridin-3-yl)pyridin-2-yl)benzamide], the IC50 worked out at 29 nM on TGFβRI kinase ALK5, 4060 nM in data set [1], 638 nM on p38α kinase and 86 nM in data set [2].
As for `Cc1cccc(-c2nc3n(c2-c2ccnc(-c4cnn(C)c4)c2)C2CCC3C2)n1` (stereo not drawn) [Example 12, 3-(2-(1-Methyl-1H-pyrazol-4-yl)pyridin-4-yl)-2-(6-methylpyridin-2-yl)-5,6,7,8-tetrahydro-5,8-methanoimidazo[1,2-a]pyridine], the IC50 at TGFβRI kinase ALK5 is 9 nM; on p38α kinase, 454 nM; in the data set on NIH3T3 cell it was 13 nM; in data set [2] it was 33 nM.
As for `Cc1cccc(-c2nc3n(c2-c2ccnc(NCCN4CCOCC4)c2)[C@H]2CC[C@@H]3C2)n1` [Example 16-1, 4-((5S,8R)-2-(6-Methylpyridin-2-yl)-5,6,7,8-tetrahydro-5,8-methanoimidazo[1,2-a]pyridin-3-yl)-N-(2-morpholinoethyl)pyridin-2-amine], the half-inhibitory concentration (IC50) at TGFβRI kinase ALK5 is 77 nM; in data set [1], more than 10000 nM.
What is called AUC is concentration integrated over time. Broadly, the MRT is a mean duration of stay, worked out from the concentration-time curve. Consider `Cc1cccc(-c2nn3c(c2-c2ccnc(-c4ccc(S(C)(=O)=O)cc4)c2)C2CCC3CC2)n1` [Example 33, 2-(6-Methylpyridin-2-yl)-3-(2-(4-(methylsulfonyl)phenyl)pyridin-4-yl)-4,5,6,7-tetrahydro-4,7-ethanopyrazolo[1,5-a]pyridine], for which the results for the 50% inhibitory concentration (IC50) (at TGFβRI kinase ALK5; at p38α kinase; in data set [2]) were 34 nM, 563 nM and 87 nM, respectively. For the same molecule, in data set [3] (read-out: Apparent distribution volume Vz/F), the Vd/F turned out to be 16.4 ± 10.7 L/kg. Moreover, the exposure (AUC) in data set [3] (read-out: Area under curve AUC) is 228 ± 159 ng·h/mL. The CL/F in data set [3] (read-out: Clearance CLz/F) amounted to 193 ± 95 mL/min/kg. Moreover, the half-life in data set [3] (read-out: Half-life T1/2 (converted)) is 0.973 ± 0.3 h. Moreover, the Cmax in data set [3] (read-out: Plasma concentration Cmax) is 178 ± 113 ng/mL. Also, the MRT in data set [3] (read-out: Residence time MRT) is 1.2 ± 0.35 h.
In the case of `Cc1cccc(-c2nn3c(c2-c2ccc4nccc(C(N)=O)c4c2)C2CCC3CC2)n1` [Example 36, 6-(2-(6-Methylpyridin-2-yl)-4,5,6,7-tetrahydro-4,7-ethanopyrazolo[1,5-a]pyridin-3-yl)quinoline-4-carboxamide], the IC50 came to 21 nM at TGFβRI kinase ALK5, 1010 nM in data set [1], 598 nM at p38α kinase and 18 nM in data set [2].
As to `CS(=O)(=O)c1ccc(-c2cc(-c3c(-c4ccc(F)cn4)nc4n3[C@H]3CC[C@@H]4C3)ccn2)cc1` [Example 42-1, (5S,8R)-2-(5-Fluoropyridin-2-yl)-3-(2-(4-(methylsulfonyl)phenyl)pyridin-4-yl)-5,6,7,8-tetrahydro-5,8-methanoimidazo[1,2-a]pyridine], the 50% inhibitory concentration (IC50) in data set [1] was 9740 nM; on p38α kinase, 7780 nM; in data set [2] it was 31 nM.
